Measurements taken from BindingDB's records for PubMed 26804741 (Helmholtz Institute For Pharmaceutical Research Saarland …, 2016).

Experiment: Inhibition of Pseudomonas aeruginosa LecB

Row | IC50 | SMILES
1 | 8 µM | CCCCCCCCO[C@@H]1O[C@H](CO)[C@H](O[C@@H]2O[C@H](CO)[C@H](O)[C@H](O)[C@H]2NC(C)=O)[C@H](O)[C@H]1OCCC
2 | 0.14 µM | CC[C@H](C)[C@H](NC(=O)[C@H](Cc1cnc[nH]1)NCCCC[C@H](NC(=O)[C@@H](NC(=O)[C@H](CCCCN)NC(=O)[C@H](Cc1ccccc1)NC(=O)[C@H](CCCCNC(=O)[C@H](CC(C)C)NC(=O)[C@@H]1CCCN1C(=O)[C@@H](N)CCCCNC(=O)C[C@@H]1O[C@@H](C)[C@@H](O)[C@@H](O)[C@@H]1O)NC(=O)[C@H](CC(C)C)NC(=O)[C@@H]1CCCN1C(=O)[C@@H](N)CCCCNC(=O)C[C@@H]1O[C@@H](C)[C@@H](O)[C@@H](O)[C@@H]1O)[C@@H](C)CC)C(=O)N[C@H](C(=O)N[C@@H](CCCCN)C(=O)N[C@@H](Cc1ccccc1)C(=O)N[C@@H](CCCCN[C@@H](CC(C)C)C(=O)N1CCC[C@H]1C(=O)N[C@@H](CCCCNC(=O)C[C@@H]1O[C@@H](C)[C@@H](C)[C@@H](C)[C@@H]1O)C(=O)O)C(=O)N[C@@H](CC(C)C)C(=O)N1CCC[C@H]1C(=O)N[C@@H](CCCCNC(=O)C[C@@H]1O[C@@H](C)[C@@H](O)[C@@H](O)[C@@H]1O)C(=O)O)[C@@H](C)CC)C(N)=O
3 | 100 µM | CO[C@H]1O[C@H]([C@@H](O)CNS(=O)(=O)c2c(C)cc(C)cc2C)[C@@H](O)[C@H](O)[C@@H]1O
